Experimental data reported in US20150337315A1, “COMPOSITIONS AND METHODS TARGETING SIGNALING BY THE G PROTEIN BETA-GAMMA SUBUNIT FOR THE TREATMENT OF ASTHMA” (priority 2014, published 2015).
“Also recorded” adds a separate entry of the source.

Legend:
[1] = system: PDE activity detected in cultured asthmatic HASM cells; conditions: recent report [27]; cited from earlier work
[2] = system: asthmatic individuals; conditions: cited from earlier work
[3] = system: phosphorylated c-Src (p-Src); experiment: Immunoblot of phosphorylated c-Src (Tyr416) in asthmatic HASM cells; type: cell-based, human
Method: (§1) Levels of total and phosphorylated c-Src at residue Tyr416 and ERK1/2 proteins, as well as Gβ protein, were detected by Western blot analysis of lysates isolated from normal and asthmatic HASM cells before and at various times after treatment either with 1 μM of anti-Gβγ blocking peptide or gallein, or the c-Src family tyrosine kinase-selective inhibitor, SU6656 (10 μM), or exposure to the pro-asthmatic Th2 cytokine, IL-13 (50 ng/ml), as described. Following protein extraction and addition of gel loading buffer, the cellular extracts were loaded on a 10% SDS-PAGE gel for immunoblotting after transfer to a PVDF membrane. The membranes were then incubated overnight with monoclonal mouse anti-human primary antibodies directed against c-Src, phospho-c-Src^Tyr416, ERK1/2 and phospho-ERK1/2 (Millipore; Billerica, Mass.), and a rabbit anti-human polyclonal antibody directed against the Gβ subunit (Millipore; Billerica, Mass.). Protein levels were detected by ECL after a 1-hr incubation with a 1:2,000 dilution of HRP-conjugated secondary antibody, followed by exposure to autoradiography film. The protein band intensities were quantified by densitometry.

[4] = system: PDE activity in asthmatic HASM cells; experiment: cAMP PDE activity assay in lysates of treated or siRNA-transfected asthmatic HASM cells; type: cell-based, human; conditions: for effect on heightened basal PDE activity: × 2 hr
Method: Primary cultures of HASM cells derived from bronchial smooth muscle freshly isolated post-mortem from normal non-asthmatic (n=3) and asthmatic (n=4) donor lungs were purchased at passage 2-3 from Lonza Walkersville, Inc. Other than data regarding age, race, and gender of the donors provided in Table 1, limited information was available with respect to clinical severity of asthma, treatment history, or cause of death, with exception to asthma donor #1. All the experiments were conducted at passage 5-6, after growing the cells in Lonza's serum-containing SmBM medium supplemented with the BulletKit medium that contains insulin, human FGF, gentamycin/amphotericin B. The cells were maintained throughout in a humidified incubator containing 5% CO2 in air at 37° C. and, after attaining ˜90% confluence, cells were growth arrested for 24 hr in serum-free Ham's F12 medium. Thereafter, the cells were examined for constitutive and induced changes in PDE activity, levels of free Gβ, c-Src and ERK1/2 phosphorylation, and PDE4D protein expression, all in the absence and presence of different pretreatment conditions, as described.
Levels of total cAMP PDE activity were determined in normal and asthmatic HASM cells at baseline and at different times ranging from 0.25-24 hr following administration of a maximally effective concentration of either: 1) a cell permeable anti-Gβγ blocking peptide (1 μM; AnaSpec; Premont, Calif.), comprised of a membrane permeable sequence (MPS; 15 amino acids) conjugated to the Gβγ-sequestering C-terminal domain (28 amino acids) of phosducin-like protein [28]; 2) the inert MPS peptide alone (1 μM) serving as a negative-control; or 3) 1 μM of gallein [29], a recently described small molecule inhibitor of Gβγ signaling (Acros Organics). PDE activity was also assayed in normal and asthmatic HASM cells following dose-dependent administration of anti-Gβγ blocking peptide (0.01-10 μM), and following treatment with various small molecule inhibitors, as described. The PDE activity assay was performed in the HASM cell lysates using a colorimetric, non-radioactive enzymatic assay (Enzo Life Sciences; Plymouth Meeting, Pa.) as per the manufacturer's protocol, with some modification of our previously described approach. Specifically, to maximize the sensitivity and yield of the measurement enzyme activity, we used materials including a cell lysis buffer completely free of phosphate, composed of 50 mM Tris, pH 7.5, 0.1 mM EDTA, 0.1 mM EGTA, 1 mM DTT and 0.2% NP-40. The measured levels of PDE activity were standardized to protein content in the cell extracts. Finally, PDE activity was also assayed in normal and asthmatic HASM cells following transfection with siRNA preparations targeted at suppressing specific signaling molecules, as described below.
Targeted protein suppression using siRNA preparations was examined in normal and asthmatic HASM cells that were initially seeded into 6-well plates and, at ˜40% confluency, the medium was replaced with the reduced serum-containing medium, Opti-MEM (Invitrogen). Cells were then transfected twice during a 24-hr interval with pools of siRNA preparations, each pool comprised of three siRNA duplexes targeted against either human Rap1GAP (Ambion; ID: s11785, s11786, s11787), RGS14, (Ambion; ID: 18059, 18147, 135857), or the PKAα catalytic subunit (Santa Cruz Biotechnology; Pool ID: sc-36240), as well as a non-targeted (scrambled) siRNA duplex serving as a negative control. As previously described [16.17.31], the transfections were carried out using Oligofectamine (Invitrogen) as the transfection agent, and the pools of siRNAs were applied to each well at a final concentration of 100 nM for each siRNA preparation.

[5] = system: isolated rabbit ASM tissues; conditions: sensitized under various proasthmatic conditions; [16-18]; cited from earlier work
[6] = system: PDE activity evoked in cultured normal HASM cells; conditions: sensitized under various proasthmatic conditions; [16-18]; cited from earlier work
[7] = system: free Gβ protein levels; experiment: Immunoblot of free Gβ protein in IL-13-treated normal HASM cells; type: cell-based, human; conditions: IL-13 50 ng/ml, 50 μg/ml printed
Method: as §1

[8] = system: co-localization of p-Src with immunoprecipitated Gβ; experiment: Co-IP of p-Src with immunoprecipitated Gβ in IL-13-treated normal HASM cells; type: cell-based, human; conditions: IL-13 × 60 min
Method: as §1, with “The membranes were then incubated overnight with monoclonal mouse anti-human primary antibodies directed against c-Src, phospho-c-Src^Tyr416, ERK1/2 and phospho-ERK1/2 (Millipore; Billerica, Mass.), and a rabbit anti-human polyclonal antibody directed against the Gβ subunit (Millipore; Billerica, Mass.).” left out
(§2) Normal and asthmatic HASM cells were prepared for co-immunoprecipitation (Co-IP) studies, performed as previously described, under native conditions in order to preserve protein-protein associations. […] The precipitated immunocomplexes were subsequently analyzed by immunoblotting using either anti-Gβ, anti-phospho-c-Src^Tyr416, anti-ERK1/2, or anti-PDE4D rabbit polyclonal antibody, or anti-Rap1GAP rabbit monoclonal IgG antibody (Millipore; Billerica, Mass.).

[9] = system: phosphorylated ERK1/2 (p-ERK1/2); experiment: Immunoblot of phosphorylated ERK1/2 in asthmatic HASM cells; type: cell-based, human; conditions: 1 μM × 30 min
Method: as §1

[10] = system: allergic rabbits; conditions: previous study (18); cited from earlier work
[11] = system: co-localization of Gβ with immunoprecipitated Gα; experiment: Western blot / Co-IP of free Gβ and Gα-associated Gβ in normal HASM cells; type: cell-based, human; conditions: 1 μM, 30 min
Method: as §1, with “The membranes were then incubated overnight with monoclonal mouse anti-human primary antibodies directed against c-Src, phospho-c-Src^Tyr416, ERK1/2 and phospho-ERK1/2 (Millipore; Billerica, Mass.), and a rabbit anti-human polyclonal antibody directed against the Gβ subunit (Millipore; Billerica, Mass.).” left out
as §2

[12] = system: co-localization of ERK1/2 with PDE4D; experiment: Co-IP of PDE4D with immunoprecipitated ERK1/2 in asthmatic HASM cells; type: cell-based, human; conditions: within 30 min
Method: Normal and asthmatic HASM cells were prepared for co-immunoprecipitation (Co-IP) studies, performed as previously described, under native conditions in order to preserve protein-protein associations. After indicated treatments, cells were harvested and then exposed to lysis buffer. 1.5 mg of Protein G Dynabeads (Invitrogen; Carlsbad, Calif.) were incubated with 10 μg of anti-Gβ rabbit IgG (Millipore) or anti-Gα (pan) rabbit polyclonal antibody (Millipore; Billerica, Mass.) and incubated for 10 min at room temperature with rotation. Following several washes, the bound bead/antibody complex was added to sample, mixed by pipetting, and incubated for 2 hr at 4° C. with rotation. The captured bead/Protein G/antigen complex was then washed several times and eluted at pH 3.0 with rotation at room temperature. The precipitated immunocomplexes were subsequently analyzed by immunoblotting using either anti-Gβ, anti-phospho-c-Src^Tyr416, anti-ERK1/2, or anti-PDE4D rabbit polyclonal antibody, or anti-Rap1GAP rabbit monoclonal IgG antibody (Millipore; Billerica, Mass.).

[13] = system: co-localization of Gβ with immunoprecipitated Gα; experiment: Western blot / Co-IP of free Gβ and Gα-associated Gβ in asthmatic HASM cells; type: cell-based, human; conditions: 1 μM, 30 min
Method: as §1, with “The membranes were then incubated overnight with monoclonal mouse anti-human primary antibodies directed against c-Src, phospho-c-Src^Tyr416, ERK1/2 and phospho-ERK1/2 (Millipore; Billerica, Mass.), and a rabbit anti-human polyclonal antibody directed against the Gβ subunit (Millipore; Billerica, Mass.).” left out
as §2

## O=C(Nc1c(Cl)cncc1Cl)c1ccc(OC(F)F)c(OCC2CC2)c1 [roflumilast]
[1]
  effect on increased PDE activity in cultured asthmatic HASM cells: inhibited
[2]; [19,21]
  effect on airway hyperresponsiveness following allergen challenge: decreases airway hyperresponsiveness
[2]; [20]
  effect on lung function: improves lung function

## COc1ccc([C@]2(C#N)CC[C@@H](C(=O)O)CC2)cc1OC1CCCC1 [cilomilast]
[1]
  effect on increased PDE activity in cultured asthmatic HASM cells: inhibited

## CN(C)S(=O)(=O)c1ccc2c(c1)/C(=C/c1cc3c([nH]1)CCCC3)C(=O)N2 [SU6656]
[3]; SU6656 10 μM
  effect on constitutively increased p-Src levels: suppressive effect
[4]; 10 μM
  effect on heightened basal PDE activity: suppressed to near normal levels; also recorded: acutely reversed to near normal levels

## COc1ccc(C2CNC(=O)C2)cc1OC1CCCC1 (centres unmarked) [rolipram]
[5]
  effect on increased PDE activity evoked in isolated rabbit ASM tissues: inhibits
[4]; 10 μM × 1 hr, data not shown
  effect on heightened constitutive PDE activity: completely abrogated
[6]
  effect on increased PDE activity evoked in cultured normal HASM cells: inhibits

## Oc1ccc(-c2nc(-c3ccncc3)c(-c3ccc(F)cc3)[nH]2)cc1 [SB202190]
[4]; 10 μM
  effect on heightened basal PDE activity: no significant effect

## O=S(=O)(NCCNC/C=C/c1ccc(Br)cc1)c1cccc2cnccc12 [H89]
[4]; 10 μM
  effect on heightened basal PDE activity: no significant effect

## O=c1cc(N2CCOCC2)oc2c(-c3ccccc3)cccc12 [LY294002]
[4]; 10 μM
  effect on heightened basal PDE activity: no significant effect

## N#CC(=C(/N)Sc1ccccc1N)/C(C#N)=C(\N)Sc1ccccc1N [U0126]
[4]; 5 μM
  effect on heightened basal PDE activity: acutely reversed to near normal levels; also recorded: acutely suppressed the elevated PDE activity in asthmatic HASM cells to near normal levels

## IL-13: pro-asthmatic Th2 cytokine used as stimulus
[7]
  time of peak of evoked increase in free Gβ levels: 60 to 90 min
[8]; relative to unstimulated cells
  effect on co-localization of p-Src with immunoprecipitated Gβ: increased co-localization; also recorded: enhanced co-localization

## O=C1OC2(c3ccccc31)c1ccc(O)c(O)c1Oc1c2ccc(O)c1O [gallein]
[3]; 1 μM × 30 min
  effect on constitutively increased p-Src levels: acutely suppressed
[9]
  effect on constitutively increased p-ERK1/2 levels: acutely suppressed
[10]
  effect of pretreatment on in vivo AHR elicited by allergen challenge: only suppressed AHR
  effect of pretreatment on pulmonary inflammation elicited by allergen challenge: no appreciable inhibitory effect
[4]; 1 μM
  time at which PDE activity is suppressed to normal levels: 0.25 h
[4]; 1 μM (maximally effective concentration), acute effect
  effect on constitutively increased PDE activity in asthmatic HASM cells: similarly acutely suppressed
[4]; 1 μM, followed up to 24 hr
  duration of suppression of PDE activity: transient in nature
[11]
  effect on Gβ distribution: neither inhibitor had an effect
[8]
  effect of pretreatment on IL-13-induced co-localization of p-Src with immunoprecipitated Gβ: abrogated
[12]
  effect on heightened co-localization of ERK1/2 with PDE4D: acutely reversed
[13]
  effect on Gβ distribution (increased free Gβ, reduced Gα-associated Gβ): acutely reversed
